Experimental data taken from the NIST ThermoML archive (doi:10.1021/je800157v).
Numbers after ± are expanded uncertainties.

Test: xn = mol fraction of the nth substance listed
Conditions: 101 kPa, Liquid

CCC(C)O (stereo unspecified) [butan-2-ol] + c1ccccc1
mass density [kg/m3]
Conditions | 288.15 K | 293.15 K | 298.15 K | 303.15 K | 308.15 K | 313.15 K
x1 = 0.0511 | 879.01 ± 0.32 | 873.67 ± 0.33 | 868.33 ± 0.33 | 862.98 ± 0.34 | 857.61 ± 0.35 | 852.24 ± 0.36
x1 = 0.0995 | 874.6 ± 0.33 | 869.29 ± 0.33 | 863.96 ± 0.34 | 858.62 ± 0.35 | 853.25 ± 0.36 | 847.89 ± 0.37
x1 = 0.1508 | 870.04 ± 0.34 | 864.77 ± 0.34 | 859.48 ± 0.35 | 854.17 ± 0.36 | 848.83 ± 0.37 | 843.48 ± 0.38
x1 = 0.2013 | 865.76 ± 0.35 | 860.54 ± 0.35 | 855.3 ± 0.36 | 850.02 ± 0.37 | 844.72 ± 0.38 | 839.39 ± 0.39
x1 = 0.2482 | 861.91 ± 0.36 | 856.74 ± 0.36 | 851.54 ± 0.37 | 846.3 ± 0.38 | 841.03 ± 0.39 | 835.75 ± 0.4
x1 = 0.2999 | 857.8 ± 0.37 | 852.69 ± 0.37 | 847.54 ± 0.38 | 842.35 ± 0.39 | 837.13 ± 0.4 | 831.88 ± 0.41
x1 = 0.3486 | 854.03 ± 0.38 | 848.96 ± 0.38 | 843.86 ± 0.39 | 838.72 ± 0.4 | 833.54 ± 0.41 | 828.34 ± 0.42
x1 = 0.3995 | 850.21 ± 0.39 | 845.2 ± 0.4 | 840.14 ± 0.4 | 835.05 ± 0.41 | 829.92 ± 0.42 | 824.76 ± 0.43
x1 = 0.4509 | 846.44 ± 0.4 | 841.48 ± 0.41 | 836.49 ± 0.42 | 831.44 ± 0.42 | 826.35 ± 0.43 | 821.21 ± 0.44
x1 = 0.5003 | 842.93 ± 0.41 | 838.02 ± 0.42 | 833.08 ± 0.43 | 828.08 ± 0.43 | 823.04 ± 0.44 | 817.96 ± 0.45
x1 = 0.5498 | 839.48 ± 0.42 | 834.64 ± 0.43 | 829.75 ± 0.44 | 824.82 ± 0.45 | 819.82 ± 0.45 | 814.8 ± 0.46
x1 = 0.5953 | 836.41 ± 0.44 | 831.62 ± 0.44 | 826.79 ± 0.45 | 821.91 ± 0.46 | 816.96 ± 0.46 | 811.96 ± 0.47
x1 = 0.6487 | 832.84 ± 0.45 | 828.13 ± 0.46 | 823.37 ± 0.46 | 818.56 ± 0.47 | 813.68 ± 0.48 | 808.75 ± 0.48
x1 = 0.7006 | 829.46 ± 0.46 | 824.83 ± 0.47 | 820.15 ± 0.48 | 815.4 ± 0.48 | 810.59 ± 0.49 | 805.73 ± 0.5
x1 = 0.7493 | 826.32 ± 0.48 | 821.78 ± 0.48 | 817.17 ± 0.49 | 812.5 ± 0.5 | 807.75 ± 0.5 | 802.95 ± 0.51
x1 = 0.802 | 822.97 ± 0.49 | 818.51 ± 0.5 | 814 ± 0.5 | 809.41 ± 0.51 | 804.74 ± 0.52 | 800.01 ± 0.52
x1 = 0.8501 | 819.96 ± 0.51 | 815.6 ± 0.51 | 811.17 ± 0.52 | 806.66 ± 0.52 | 802.07 ± 0.53 | 797.4 ± 0.53
x1 = 0.9003 | 816.84 ± 0.52 | 812.58 ± 0.53 | 808.25 ± 0.53 | 803.84 ± 0.54 | 799.34 ± 0.54 | 794.77 ± 0.55
x1 = 0.9206 | 815.57 ± 0.53 | 811.36 ± 0.53 | 807.07 ± 0.54 | 802.7 ± 0.54 | 798.25 ± 0.55 | 793.72 ± 0.55
x1 = 0.9479 | 813.92 ± 0.53 | 809.76 ± 0.54 | 804.85 ± 0.55 | 801.21 ± 0.55 | 796.18 ± 0.56 | 791.73 ± 0.56
x1 = 1 | 810.64 ± 0.55 | 806.59 ± 0.56 | 802.47 ± 0.56 | 798.27 ± 0.57 | 793.97 ± 0.57 | 789.59 ± 0.58

ClC(Cl)Cl [trichloromethane] + CCC(C)O
mass density [kg/m3]
Conditions | 288.15 K | 293.15 K | 298.15 K | 303.15 K | 308.15 K | 313.15 K
x2 = 0 | 1498.08 ± 0.92 | 1488.64 ± 0.91 | 1479.15 ± 0.89 | 1469.61 ± 0.88 | 1460.03 ± 0.86 | 1450.41 ± 0.85
x2 = 0.0514 | 1455.49 ± 0.88 | 1446.33 ± 0.86 | 1437.12 ± 0.85 | 1427.86 ± 0.83 | 1418.55 ± 0.82 | 1409.22 ± 0.8
x2 = 0.1045 | 1413.17 ± 0.82 | 1404.26 ± 0.8 | 1395.31 ± 0.79 | 1386.31 ± 0.77 | 1377.26 ± 0.76 | 1368.2 ± 0.75
x2 = 0.1518 | 1376.62 ± 0.77 | 1367.94 ± 0.75 | 1359.22 ± 0.74 | 1350.44 ± 0.72 | 1341.17 ± 0.71 | 1332.78 ± 0.7
x2 = 0.1962 | 1342.92 ± 0.72 | 1334.49 ± 0.71 | 1326.01 ± 0.69 | 1317.48 ± 0.68 | 1308.89 ± 0.67 | 1300.27 ± 0.65
x2 = 0.2512 | 1302.06 ± 0.67 | 1293.92 ± 0.65 | 1285.73 ± 0.64 | 1277.49 ± 0.63 | 1269.19 ± 0.61 | 1260.86 ± 0.6
x2 = 0.2998 | 1266.64 ± 0.62 | 1258.77 ± 0.61 | 1250.84 ± 0.59 | 1242.86 ± 0.58 | 1234.82 ± 0.57 | 1226.74 ± 0.55
x2 = 0.3507 | 1230.33 ± 0.57 | 1222.74 ± 0.56 | 1215.09 ± 0.55 | 1207.39 ± 0.53 | 1199.64 ± 0.52 | 1191.86 ± 0.51
x2 = 0.3995 | 1196.11 ± 0.53 | 1188.78 ± 0.51 | 1181.4 ± 0.5 | 1173.96 ± 0.49 | 1166.47 ± 0.48 | 1158.94 ± 0.46
x2 = 0.4502 | 1161.11 ± 0.48 | 1154.06 ± 0.47 | 1146.95 ± 0.46 | 1139.78 ± 0.44 | 1132.56 ± 0.43 | 1125.28 ± 0.42
x2 = 0.4978 | 1128.73 ± 0.44 | 1121.94 ± 0.42 | 1115.08 ± 0.41 | 1108.17 ± 0.4 | 1101.2 ± 0.39 | 1094.2 ± 0.38
x2 = 0.546 | 1096.47 ± 0.39 | 1089.93 ± 0.38 | 1083.34 ± 0.37 | 1076.68 ± 0.36 | 1069.96 ± 0.35 | 1063.21 ± 0.34
x2 = 0.6008 | 1060.39 ± 0.35 | 1054.14 ± 0.34 | 1047.83 ± 0.33 | 1041.47 ± 0.31 | 1035.03 ± 0.3 | 1028.55 ± 0.29
x2 = 0.6498 | 1028.63 ± 0.31 | 1022.64 ± 0.3 | 1016.59 ± 0.29 | 1010.48 ± 0.27 | 1004.3 ± 0.26 | 998.07 ± 0.26
x2 = 0.7008 | 995.87 ± 0.27 | 990.15 ± 0.28 | 984.37 ± 0.29 | 978.52 ± 0.29 | 972.61 ± 0.3 | 966.65 ± 0.31
x2 = 0.7446 | 968.17 ± 0.32 | 962.68 ± 0.32 | 957.13 ± 0.33 | 951.51 ± 0.34 | 945.82 ± 0.34 | 940.07 ± 0.35
x2 = 0.7984 | 934.4 ± 0.37 | 929.2 ± 0.38 | 923.93 ± 0.38 | 918.6 ± 0.39 | 913.19 ± 0.39 | 907.74 ± 0.4
x2 = 0.8507 | 901.92 ± 0.42 | 897 ± 0.43 | 892.02 ± 0.43 | 886.97 ± 0.44 | 881.84 ± 0.44 | 876.65 ± 0.45
x2 = 0.9 | 871.62 ± 0.47 | 866.99 ± 0.47 | 862.29 ± 0.48 | 857.51 ± 0.48 | 852.65 ± 0.49 | 847.72 ± 0.5
x2 = 0.9486 | 841.91 ± 0.51 | 837.56 ± 0.52 | 833.14 ± 0.52 | 828.64 ± 0.53 | 824.05 ± 0.54 | 819.39 ± 0.54
